Measured values published in US20230148450A9, “BICYCLIC HETEROARYL COMPOUNDS AND USES THEREOF” (Revolution Medicines, Inc., priority 2019, published 2023).

Assays:
[1] = biological target: T1, SOS1 nucleotide exchange of KRAS (catalytic domain of SOS1, residues 564-1049; wild-type KRAS) (Homo sapiens, UniProt Q07889); assay: Mode of Action Assay: Inhibition of SOS1 Nucleotide Exchange Activity (TR-FRET); assay type: biochemical; conditions: TR-FRET signal
T1 construct: tagless catalytic domain of SOS1 (residues 564-1049)
T1 sequence (Q07889 564-1049): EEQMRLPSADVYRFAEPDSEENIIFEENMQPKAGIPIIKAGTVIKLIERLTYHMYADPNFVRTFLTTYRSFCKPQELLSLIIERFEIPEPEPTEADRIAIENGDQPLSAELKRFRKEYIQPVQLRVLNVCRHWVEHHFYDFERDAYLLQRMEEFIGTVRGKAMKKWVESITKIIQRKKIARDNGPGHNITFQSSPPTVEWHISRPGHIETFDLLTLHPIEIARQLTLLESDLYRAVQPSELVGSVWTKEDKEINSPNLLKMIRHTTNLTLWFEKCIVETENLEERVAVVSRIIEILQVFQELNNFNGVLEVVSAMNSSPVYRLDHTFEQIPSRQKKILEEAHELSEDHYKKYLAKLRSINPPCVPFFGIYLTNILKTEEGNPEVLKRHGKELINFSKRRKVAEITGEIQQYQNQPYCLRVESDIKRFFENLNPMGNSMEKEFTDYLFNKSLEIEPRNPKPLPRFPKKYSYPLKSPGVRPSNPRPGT
Description: The purpose of this assay was to characterize the inhibitory activity of compounds on SOS1 nucleotide exchange of KRAS. Data was reported as IC50 values based on the TR-FRET signal.
Note—the following protocol describes a procedure for monitoring the inhibition of SOS1 nucleotide exchange activity of wild-type KRAS in response to a compound of the invention. Other KRAS mutants and RAS isoforms maybe employed.
In assay buffer containing 20 mM HEPES, pH 7.5, 150 mM NaCl, 5 mM MgCl2, 0.05% Tween-20, 0.1% BSA, 1 mM DTT, concentration series of test compounds were generated spanning 100 μM to 1.7 nM over eleven 3-fold serial dilutions in a 384-well assay plate at a volume of 20 μL. The purified tagless catalytic domain of SOS1 (residues 564-1049) was first diluted in assay buffer at a concentration of 100 nM, and then 20 μL of the SOS1 containing solution was directly dispensed into compound plates. The SOS1/compound mixture was incubated at room temperature with constant mixing on an orbital shaker for 20 minutes to allow the reaction to reach equilibrium. A KRAS mixture was prepared by diluting 66.7 nM avi-tagged KRAS (residue 1-169), 3.33 nM Streptavidin-Tb and 333 nM EDA-GTP-DY-647P1 in assay buffer. This mixture was prepared immediately before addition to the SOS1/compound mixture to prevent intrinsic nucleotide exchange. Then 5 μL of the pre-incubated SOS1/compound mixture and 7.5 μL of the KRAS mixture were added sequentially in a 384-well low volume black round bottom plate and incubated at room temperature with constant shaking for 30 minutes. Time-resolved fluorescence was measured on a PerkinElmer Envision plate reader. DMSO and 10 μM of compound (i) were used as negative and positive controls, respectively.
Three replicates were performed for each compound. Data were normalized by the following: (Positive control—Sample signal)/(Positive control—negative control)*100. The data were fit using a four-parameter logistic fit.

[2] = biological target: T2, SOS1 catalytic domain (residues 564-1049) (Homo sapiens, UniProt Q07889); assay: Binding affinity to SOS1 using Surface Plasmon Resonance (SPR); conditions: avi-tagged SOS1 catalytic domain immobilized on sensor chip; read-out: SOS1 SPR Equilibrium Kd
T2 construct: SOS1 catalytic domain (residues 564-1049) immobilized on a sensor chip
T2 sequence (Q07889 564-1049): T1 sequence (Q07889 564-1049)
Description: Potency Assay: Measurement of the Binding Affinity of Compounds of the Invention to SOS! using Surface Plasmon Resonance (SPR)
The purpose of the SPR assay was to measure the direct binding of compounds to SOS1 catalytic domain (residues 564-1049) immobilized on a sensor chip. Data was reported as equilibrium dissociation constant (Kd) values.
Using a GE Biacore 8K SPR instrument, avi-tagged SOS1 catalytic domain protein was immobilized to a level of approximately 6000 response units (RU) on a streptavidin-coated SPR sensor chip in assay buffer containing 0.01 M HEPES, 0.15 M NaCl and 0.05% v/v Surfactant P20. In assay buffer containing 2% DMSO, concentration series of test compounds were generated spanning 5 μM to 4.9 nM over ten 2-fold dilutions. For each test compound, a separate 0 μM sample was generated for use during subsequent double reference subtraction. Serially for each test compound, individual dilution samples were flowed over the immobilized SOS1 protein at a flow rate of 50 μL/minute to monitor the association with SOS1. Dissociation of bound test compound from the SOS1 protein was immediately monitored by flowing assay buffer over the sensor surface and monitoring the decrease in binding signal back to the baseline level seen in the absence of compound. This was repeated for all compound dilutions in each series. The binding level response for each test compound concentration was noted immediately prior to the end of the association phase, and a secondary plot generated showing binding response level versus test compound concentration generated for each compound dilution series.

[3] = tested on: cellular pERK in PC-9 cells (EGFR Ex19Del); assay: Potency Assay: pERK; assay type: cell-based; conditions: Homo sapiens; PC-9 cells (EGFR Ex19Del), 1 hour incubation, AlphaLISA p-ERK1/2; read-out: SOS1 pERK IC50
Description: The purpose of this assay is to measure the ability of test compounds to inhibit SOS1 function in cells. SOS1 activates RAS proteins by catalyzing the conversion of […] to […] in response to receptor tyrosine kinase activation. Activation of RAS induces a sequence of cellular signaling events that results in increased phosphorylation of ERK at […] (pERK). The procedure described below measures the level of cellular pERK in response to test compounds in PC-9 cells (EGFR Ex[…]). PC-9 cells were grown and maintained using media and procedures recommended by the ATCC. On the day prior to compound addition, cells were plated in 384-well cell culture plates (40 μL/well) and grown overnight in a 37° C., 5% CO2 incubator. Test compounds were prepared in 10, 3-fold dilutions in DMSO, with a top concentration of 10 mM. On the day of the assay, 40 nL of test compound was added to each well of cell culture plate using an Echo550 liquid handler (LabCyte). Concentrations of test compound were tested in duplicate with highest test concentration being 10 μM. After compound addition, cells were incubated for 1 hour at 37° C., 5% CO2. Following incubation, culture medium was removed and cells were washed once with phosphate buffered saline. Cellular pERK level was determined using the AlphaLISA SureFire Ultra p-ERK1/2 Assay Kit (PerkinElmer). Cells were lysed in 25 μL lysis buffer, with shaking at 600 RPM at room temperature for 15 minutes. Lysate (10 μL) was transferred to a 384-well Opti-plate (PerkinElmer) and 5 μL acceptor mix was added. The plate was centrifuged at 1000 RPM for 1 minute, and incubated in the dark for 2 hours. Following this incubation, 5 μL of donor mix was added, the plate was sealed and centrifuged at 1000 RPM for 1 minute, and the mixture was incubated for 2 hours at room temperature. Signal was read on an Envision plate reader (PerkinElmer) using standard AlphaLISA settings. Analysis of raw data was carried out in Excel (Microsoft) and Prism (GraphPad). Signal was plotted vs. the decadal logarithm of compound concentration, and IC50 was determined by fitting a 4-parameter sigmoidal concentration response model.

Row | Compound | IC50 [1] [µM] | Kd [2] [µM] | IC50 [3] [µM]
1 | Cc1nc(N[C@H](C)c2cc(N)cc(C(F)(F)F)c2)c2cc(C(=O)N3CCN(C)CC3)cn2n1 [Example 36, (R)-(4-((1-(3-amino-5-(trifluoromethyl)phenyl)ethyl)amino)-2-methylpyrrolo[2,1-f][1,2,4]triazin-6-yl)(4-methylpiperazin-1-yl)methanone] | < 1 | ≤ 0.4 | < 1
2 | Cc1nc(N[C@H](C)c2cc(N)cc(C(F)(F)F)c2)c2cc(C(=O)N3CCN(C)CC3)n(C)c2n1 [Example 37, [4-[[(1R)-1-[3-amino-5-(trifluoromethyl)phenyl]ethyl]amino]-2,7-dimethyl-pyrrolo[2,3-d]pyrimidin-6-yl]-(4-methylpiperazin-1-yl)methanone] | > 1 | > 0.4 | > 1
3 | C[C@@H](Nc1nc(Cl)nc2c1cc(C1=CCNCC1)n2C)c1cc(N)cc(C(F)(F)F)c1 [Example 39, N-[(1R)-1-[3-amino-5-(trifluoromethyl)phenyl]ethyl]-2-chloro-7-methyl-6-(1,2,3,6-tetrahydropyridin-4-yl)pyrrolo[2,3-d]pyrimidin-4-amine] | > 1 | ≤ 0.4 | > 1
4 | CNCc1ccccc1-c1ccc(C(C)Nc2nc(C)nn3cc(C4=CCNCC4)cc23)s1 (stereo not drawn) [Example 40, 2-methyl-N-[1-[5-[2-(methylaminomethyl)phenyl]-2-thienyl]ethyl]-6-(1,2,3,6-tetrahydropyridin-4-yl)pyrrolo[2,1-f][1,2,4]triazin-4-amine] | > 1 | ≤ 0.4 | > 1
5 | Cc1nc(N[C@H](C)c2cc(N)cc(C(F)(F)F)c2)c2cc(C(=O)N3CCOCC3)cn2n1 [Example 41, [4-[[(1R)-1-[3-amino-5-(trifluoromethyl)phenyl]ethyl]amino]-2-methyl-pyrrolo[2,1-f][1,2,4]triazin-6-yl]morpholino-methanone] | < 1 | ≤ 0.4 | < 1
6 | C[C@@H](Nc1ncnc2sc(C(=O)N3CCOCC3)nc12)c1cc(N)cc(C(F)(F)F)c1 [Example 42, [7-[[(1R)-1-[3-amino-5-(trifluoromethyl)phenyl]ethyl]amino]thiazolo[5,4-d]pyrimidin-2-yl]-morpholino-methanone] | < 1 | ≤ 0.4 | < 1
7 | C[C@@H](Nc1ncnn2cc(N3CCOCC3)cc12)c1cc(N)cc(C(F)(F)F)c1 [Example 47, N-[(1R)-1-[3-amino-5-(trifluoromethyl)phenyl]ethyl]-6-morpholino-pyrrolo[2,1-f][1,2,4]triazin-4-amine] | > 1 | > 0.4 | > 1
8 | C[C@@H](Nc1ncnn2cc(C(=O)N3CCOCC3)cc12)c1cc(N)cc(C(F)(F)F)c1 [Example 50, N-[(1R)-1-[3-amino-5-(trifluoromethyl)phenyl]ethyl]-6-(morpholine-4-carbonyl)pyrrolo[2,1-f][1,2,4]triazin-4-amine] | < 1 | > 0.4 | < 1
9 | C[C@@H](Nc1nc(Cl)nc2cc(C(=O)N3CCOCC3)[nH]c12)c1cc(N)cc(C(F)(F)F)c1 [Example 51, N-[(1R)-1-[3-amino-5-(trifluoromethyl)phenyl]ethyl]-2-chloro-6-(morpholine-4-carbonyl)-5H-pyrrolo[3,2-d]pyrimidin-4-amine] | > 1 | > 0.4 | > 1
10 | C[C@@H](Nc1nccn2nc(C3=CCNCC3)nc12)c1cc(N)cc(C(F)(F)F)c1 [Example 53, N-[(1R)-1-[3-amino-5-(trifluoromethyl)phenyl]ethyl]-2-(1,2,3,6-tetrahydropyridin-4-yl)-[1,2,4]triazolo[1,5-a]pyrazin-8-amine] | > 1 | ≤ 0.4 | > 1
11 | C[C@@H](Nc1ncnc2[nH]c(C(=O)N3CCOCC3)nc12)c1cc(N)cc(C(F)(F)F)c1 [Example 57, N-[(1R)-1-[3-amino-5-(trifluoromethyl)phenyl]ethyl]-8-(morpholine-4-carbonyl)-9H-purin-6-amine] | < 1 | ≤ 0.4 | < 1
12 | C[C@@H](Nc1ncnc2sc(C(=O)N3CCOCC3)cc12)c1cc(N)cc(C(F)(F)F)c1 [Example 65, N-[(1R)-1-[3-amino-5-(trifluoromethyl)phenyl]ethyl]-6-(morpholine-4-carbonyl)thieno[2,3-d]pyrimidin-4-amine] | < 1 | ≤ 0.4 | < 1
13 | C[C@@H](Nc1ncnn2cc(C(=O)N3CCN(C)CC3)cc12)c1cccc(C(F)F)c1F [Example 69] | < 1 | ≤ 0.4 | < 1
14 | C[C@@H](Nc1ncnn2cc(C(=O)N3CC4(CN(C)C4)C3)cc12)c1cccc(C(F)F)c1F [Example 70] | < 1 | ≤ 0.4 | < 1
15 | C[C@@H](Nc1ncnn2cc(C(=O)N3CC4(COC4)C3)cc12)c1cccc(C(F)F)c1F [Example 71] | < 1 | ≤ 0.4 | < 1
16 | C[C@@H](Nc1ncnn2cc(C(=O)N3CC4(C3)CN(C3COC3)C4)cc12)c1cccc(C(F)F)c1F [Example 72] | < 1 | ≤ 0.4 | < 1
